# According to US6737383B1, “Herbicidal oxadiazolidines” (priority 1999, dated 2004):
# Assays:
# [1] = system: sugar beet; test: Test B pre/postemergence sugar beet; format: in vivo, Beta vulgaris; settings: for Plant response rating, Sugarbeets: scale of 0 to 10 where 0 is no effect and 10 is complete control
# Procedure, shortened: (§1)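 Test chemicals in a non-phytotoxic solvent mixture with surfactant were sprayed preemergence onto planted seeds and postemergence onto plants 2 to 18 cm tall (1- to 4-leaf stage). After twelve to sixteen days in a greenhouse, injury was visually rated against untreated controls from 0 (no effect) to 10 (complete control).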
# [2] = system: surinam grass; test: Test B pre/postemergence surinam grass; format: in vivo, Brachiaria decumbens; settings: for Plant response rating, B. signalgrass: scale of 0 to 10 where 0 is no effect and 10 is complete control
# Procedure, shortened: as §1
# [3] = system: pigweed; test: Test B pre/postemergence pigweed; format: in vivo, Amaranthus retroflexus; settings: for Plant response rating, Redroot pigweed: scale of 0 to 10 where 0 is no effect and 10 is complete control
# Procedure, shortened: as §1
# [4] = system: giant foxtail; test: Test B pre/postemergence giant foxtail; format: in vivo, Setaria faberii; settings: for Plant response rating, Giant foxtail: scale of 0 to 10 where 0 is no effect and 10 is complete control
# Procedure, shortened: as §1
# [5] = system: blackgrass; test: Test B pre/postemergence blackgrass; format: in vivo, Alopecurus myosuroides; settings: for Plant response rating, Blackgrass: scale of 0 to 10 where 0 is no effect and 10 is complete control
# Procedure, shortened: as §1
# [6] = system: corn; test: Test B pre/postemergence corn; format: in vivo, Zea mays; settings: for Plant response rating, Corn: scale of 0 to 10 where 0 is no effect and 10 is complete control
# Procedure, shortened: as §1
# [7] = system: cocklebur; test: Test B pre/postemergence cocklebur; format: in vivo, Xanthium strumarium; settings: for Plant response rating, Cocklebur: scale of 0 to 10 where 0 is no effect and 10 is complete control
# Procedure, shortened: as §1
# [8] = system: purple nutsedge; test: Test B pre/postemergence purple nutsedge; format: in vivo, Cyperus rotundus
# Procedure, shortened: as §1
# [9] = system: crabgrass; test: Test B pre/postemergence crabgrass; format: in vivo, Digitaria sanguinalis; settings: for Plant response rating, Crabgrass: scale of 0 to 10 where 0 is no effect and 10 is complete control
# Procedure, shortened: as §1
# [10] = system: morningglory; test: Test B pre/postemergence morningglory; format: in vivo, Ipomoea hederacea; settings: for Plant response rating, Morningglory: scale of 0 to 10 where 0 is no effect and 10 is complete control
# Procedure, shortened: as §1
# [11] = system: velvetleaf; test: Test B pre/postemergence velvetleaf; format: in vivo, Abutilon theophrasti; settings: for Plant response rating, Velvetleaf: scale of 0 to 10 where 0 is no effect and 10 is complete control
# Procedure, shortened: as §1
# [12] = system: wheat; test: Test B pre/postemergence wheat; format: in vivo, Triticum aestivum; settings: for Plant response rating, Wheat: scale of 0 to 10 where 0 is no effect and 10 is complete control
# Procedure, shortened: as §1
# [13] = system: soybean; test: Test B pre/postemergence soybean; format: in vivo, Glycine max; settings: for Plant response rating, Soybean: scale of 0 to 10 where 0 is no effect and 10 is complete control
# Procedure, shortened: as §1
# [14] = system: rape; test: Test B pre/postemergence rape; format: in vivo, Brassica napus; settings: for Plant response rating, Rape: scale of 0 to 10 where 0 is no effect and 10 is complete control
# Procedure, shortened: as §1
# [15] = system: wild oat; test: Test B pre/postemergence wild oat; format: in vivo, Avena fatua; settings: for Plant response rating, Wild oats: scale of 0 to 10 where 0 is no effect and 10 is complete control
# Procedure, shortened: as §1
# [16] = system: bedstraw; test: Test B pre/postemergence bedstraw; format: in vivo, Galium aparine; settings: for Bedstraw plant response rating: scale 0 to 10 (0 no effect, 10 complete control); for Plant response rating, Bedstraw: scale of 0 to 10 where 0 is no effect and 10 is complete control
# Procedure, shortened: as §1
# [17] = Postemergence, Rate 31 g/ha, visual rating, scale 0 to 10 (0 no effect, 10 complete control)
# [18] = Postemergence, Rate 125 g/ha, scale 0 to 10, 0 is no effect, 10 is complete control
# [19] = Postemergence, Rate 250 g/ha, scale 0 to 10
# [20] = Preemergence, Rate 250 g/ha, scale 0 to 10, 0 is no effect, 10 is complete control
# [21] = Rate 62 g/ha, Postemergence, scale 0 to 10 (0 no effect, 10 complete control)
# [22] = Preemergence, Rate 31 g/ha, visual rating, scale 0 to 10 (0 no effect, 10 complete control)
structure (smiles),measurement,setting,value
CC(C)N(C(=O)n1oc(=O)n(C(C)C(=O)N(C)C)c1=O)c1ccc(F)cc1F (centres unmarked) [Compound 481],Sugarbeets plant response rating,[1]; [17],0
same,Sugarbeets plant response rating,[1]; [18],0
same,Sugarbeets plant response rating,[1]; [19],0
same,"Plant response rating, Sugarbeets","[1]; Preemergence, Rate 62 g/ha",0
same,"Plant response rating, Sugarbeets","[1]; Preemergence, Rate 125 g/ha",0
same,Sugarbeets plant response rating,[1]; [20],2
same,Sugarbeets plant response rating,[1]; [21],0
same,B. signalgrass plant response rating,[2]; [17],0
same,B. signalgrass plant response rating,[2]; [18],0
same,B. signalgrass plant response rating,"[2]; Postemergence, Rate 250 g/ha, scale 0 to 10, 0 no effect, 10 complete control",6
same,B. signalgrass plant response rating,[2]; [22],7
same,"Plant response rating, B. signalgrass","[2]; Preemergence, Rate 62 g/ha",7
same,"Plant response rating, B. signalgrass","[2]; Preemergence, Rate 125 g/ha",9
same,B. signalgrass plant response rating,[2]; [20],9
same,B. signalgrass plant response rating,[2]; [21],0
same,Redroot pigweed plant response rating,[3]; [17],0
same,Redroot pigweed plant response rating,[3]; [18],0
same,Redroot pigweed plant response rating,[3]; [19],0
same,"Plant response rating, Redroot pigweed","[3]; Preemergence, Rate 62 g/ha",0
same,"Plant response rating, Redroot pigweed","[3]; Preemergence, Rate 125 g/ha",0
same,Redroot pigweed plant response rating,[3]; [20],3
same,Redroot pigweed plant response rating,[3]; [21],0
same,Giant foxtail plant response rating,[4]; [17],0
same,Giant foxtail plant response rating,[4]; [18],2
same,Giant foxtail plant response rating,[4]; [19],8
same,Giant foxtail plant response rating,[4]; [22],8
same,"Plant response rating, Giant foxtail","[4]; Preemergence, Rate 62 g/ha",9
same,"Plant response rating, Giant foxtail","[4]; Preemergence, Rate 125 g/ha",9
same,Giant foxtail plant response rating,[4]; [20],9
same,Giant foxtail plant response rating,[4]; [21],2
same,Blackgrass plant response rating,[5]; [17],0
same,Blackgrass plant response rating,[5]; [18],0
same,Blackgrass plant response rating,[5]; [19],2
same,Blackgrass plant response rating,[5]; [22],3
same,"Plant response rating, Blackgrass","[5]; Preemergence, Rate 62 g/ha",6
same,"Plant response rating, Blackgrass","[5]; Preemergence, Rate 125 g/ha",6
same,Blackgrass plant response rating,[5]; [20],10
same,Blackgrass plant response rating,[5]; [21],0
same,Corn plant response rating,[6]; [17],0
same,Corn plant response rating,[6]; [18],3
same,Corn plant response rating,[6]; [19],3
same,Corn plant response rating,[6]; [22],0
same,"Plant response rating, Corn","[6]; Preemergence, Rate 62 g/ha",0
same,"Plant response rating, Corn","[6]; Preemergence, Rate 125 g/ha",0
same,Corn plant response rating,[6]; [20],0
same,Corn plant response rating,[6]; [21],0
same,Cocklebur plant response rating,[7]; [17],0
same,Cocklebur plant response rating,[7]; [18],0
same,Cocklebur plant response rating,[7]; [19],0
same,Cocklebur plant response rating,[7]; [22],0
same,"Plant response rating, Cocklebur","[7]; Preemergence, Rate 62 g/ha",0
same,"Plant response rating, Cocklebur","[7]; Preemergence, Rate 125 g/ha",0
same,Cocklebur plant response rating,[7]; [20],0
same,Cocklebur plant response rating,[7]; [21],0
same,Nutsedge plant response rating,[8]; [17],0
same,Nutsedge plant response rating,[8]; [19],0
same,"Plant response rating, Nutsedge","[8]; Preemergence, Rate 125 g/ha, scale of 0 to 10 where 0 is no effect and 10 is complete control",4
same,Nutsedge plant response rating,[8]; [20],6
same,Nutsedge plant response rating,[8]; [21],0
same,Crabgrass plant response rating,[9]; [17],0
same,Crabgrass plant response rating,[9]; [18],2
same,Crabgrass plant response rating,[9]; [19],2
same,Crabgrass plant response rating,[9]; [22],7
same,"Plant response rating, Crabgrass","[9]; Preemergence, Rate 62 g/ha",7
same,"Plant response rating, Crabgrass","[9]; Preemergence, Rate 125 g/ha",8
same,Crabgrass plant response rating,[9]; [20],8
same,Crabgrass plant response rating,[9]; [21],0
same,Morningglory plant response rating,[10]; [17],0
same,Morningglory plant response rating,[10]; [18],0
same,Morningglory plant response rating,[10]; [19],2
same,"Plant response rating, Morningglory","[10]; Preemergence, Rate 62 g/ha",0
same,"Plant response rating, Morningglory","[10]; Preemergence, Rate 125 g/ha",0
same,Morningglory plant response rating,[10]; [20],0
same,Morningglory plant response rating,[10]; [21],0
same,Velvetleaf plant response rating,[11]; [17],0
same,Velvetleaf plant response rating,[11]; [18],0
same,Velvetleaf plant response rating,[11]; [19],0
same,"Plant response rating, Velvetleaf","[11]; Preemergence, Rate 62 g/ha",0
same,"Plant response rating, Velvetleaf","[11]; Preemergence, Rate 125 g/ha",0
same,Velvetleaf plant response rating,[11]; [20],0
same,Velvetleaf plant response rating,[11]; [21],0
same,Wheat plant response rating,[12]; [17],0
same,Wheat plant response rating,[12]; [18],0
same,Wheat plant response rating,[12]; [19],0
same,"Plant response rating, Wheat","[12]; Preemergence, Rate 62 g/ha",0
same,"Plant response rating, Wheat","[12]; Preemergence, Rate 125 g/ha",3
same,Wheat plant response rating,[12]; [20],2
same,Wheat plant response rating,[12]; [21],0
same,Soybean plant response rating,[13]; [17],4
same,Soybean plant response rating,[13]; [18],4
same,Soybean plant response rating,[13]; [19],4
same,"Plant response rating, Soybean","[13]; Preemergence, Rate 62 g/ha",0
same,"Plant response rating, Soybean","[13]; Preemergence, Rate 125 g/ha",0
same,Soybean plant response rating,[13]; [20],0
same,Soybean plant response rating,[13]; [21],4
same,Rape plant response rating,[14]; [17],0
same,Rape plant response rating,[14]; [18],0
same,Rape plant response rating,[14]; [19],0
same,"Plant response rating, Rape","[14]; Preemergence, Rate 62 g/ha",0
same,"Plant response rating, Rape","[14]; Preemergence, Rate 125 g/ha",0
same,Rape plant response rating,[14]; [20],0
same,Rape plant response rating,[14]; [21],0
same,Wild oats plant response rating,[15]; [17],0
same,Wild oats plant response rating,[15]; [18],0
same,Wild oats plant response rating,[15]; [19],0
same,"Plant response rating, Wild oats","[15]; Preemergence, Rate 62 g/ha",4
same,"Plant response rating, Wild oats","[15]; Preemergence, Rate 125 g/ha",6
same,Wild oats plant response rating,[15]; [20],8
same,Wild oats plant response rating,[15]; [21],0
same,Bedstraw plant response rating,"[16]; Preemergence, Rate 31 g/ha, visual rating",0
same,"Plant response rating, Bedstraw","[16]; Preemergence, Rate 62 g/ha",0
same,"Plant response rating, Bedstraw","[16]; Preemergence, Rate 125 g/ha",0
same,Bedstraw plant response rating,"[16]; Rate 62 g/ha, Postemergence",0
